Like-named read-outs stand apart in the source and are kept apart here. Each block holds one compound with its values, some of them ahead of it.
Key:
[1] = target: T1, LIMK1 (Homo sapiens, UniProt P53667); experiment: LIMK1 ADP-Glo kinase assay (Promega); format: biochemical; conditions: 0.1 μM compound
T1 construct: purchased Promega
Method: ADP-Glo kinase assay was performed in 96-well plate format using the Promega kinase assay system. LIMK1 (0.1 μg) and compounds (0.1–100 μM) were dissolved in kinase reaction buffer and incubated for 30 min at rt. The reaction was then initiated by the addition of ATP (10 μM, 5 μl) and incubation for 30 min at 30°C. The reaction was then quenched with addition of 25 μl of ADP-Glo reagent. Kinase detection reagent (50 μl) was added and incubated for 30 min prior to luminescence reading on the BMG Labtech PHERAstar FS plate reader. Kinase assay is performed as duplicate.

[2] = target: T2, LIMK2 (Homo sapiens, UniProt P53671); experiment: 33P-ATP radiotracer assay, LIMK2 (Reaction Biology Corporation); format: biochemical
T2 construct: purchased Reaction Biology Corporation
Method: (§1) To measure the selectivity against LIMK isoforms, the radiotracer assay measuring the transfer of ^33P from ATP to the substrate was used since there was no ADP-Glo™ kinase assay system available for LIMK2 (Table 2).
(§2) The radiotracer assay of LIMK1 and LIMK2 was performed by Reaction Biology Corporation. Compounds were tested in 10-dose IC50 mode with fivefold series dilution starting at 10 μM. Reactions were carried out at 10 μM ^33P-ATP, 1 μM cofilin substrate, and 50 nM LIMK1 (final concentration). Kinase activity is determined by the transfer or radioactive ^33P from ATP to cofilin substrate. Radiotracer assay is performed as triplicate.

[3] = target: T1, LIMK1; experiment: 33P-ATP radiotracer assay, LIMK1 (Reaction Biology Corporation); format: biochemical; conditions: for IC50: 33P transfer from ATP to cofilin, 10 μM 33P-ATP, 1 μM cofilin, triplicate
Method: as §1, §2

[4] = test system: C6 cells; experiment: Scratch (wound closure) assay, cell migration velocity; format: cell-based; conditions: live imaging 24 h, compared to untreated cell
Method: Cofilin, the substrate for LIMK1, regulates the actin skeleton and thus regulates cell migration ([Bravo-Cordero et al., 2013]). To understand the inhibitory effect of compounds 1 and 22–26 in vitro, scratch assays were performed. The artificial wound was created by “scratching” in the middle of the well with confluent C6 cells in culture. Live imaging was captured for 24 h to measure the distance of cell migration (Figure 3; Supplementary video).
The velocity of cell migration is measured using the C6 cell line in the 24-well plate. Cells were seeded at 100,000 cells/well. After 24 h, cells were washed with warm PBS and treated with the inhibitors. Directly following the treatment, cells were moved into a preheated stage-top incubator maintained at 37°C/5% CO2, using the ZEISS Axio Observer live cell microscope, fitted with an Axiocam 702 mono camera. Cells were imaged once every 10 min using a ×10 objective with phase contrast for a 24-h period. Cell migration was analysed using Fiji ImageJ (NIH) and Chemotaxis Migration Tool (ibidi).

[5] = target: T2, LIMK2; conditions: Figure 1A, known inhibitors, ref Harrison et al., 2009, Boland et al., 2015, Yin et al., Yi et al., 2017; cited from earlier work
[6] = target: T1, LIMK1; conditions: Figure 1A, known inhibitors, ref Harrison et al., 2009, Boland et al., 2015, Yin et al., Yi et al., 2017; cited from earlier work
[7] = Promega ADP-Glo kinase assay, Table 1, read-out: % LIMK1 inhibition at 0.1 μM
[8] = Promega ADP-Glo kinase assay, Table 2, read-out: % LIMK1 inhibition at 0.1 μM
[9] = 33P transfer from ATP to cofilin, 10 μM 33P-ATP, 1 μM cofilin, triplicate
[10] = ADP-Glo assay, read-out: LIMK1 inhibitory activity at 0.1 μM
[11] = Promega ADP-Glo kinase assay, Table 1, read-out: % LIMK1 inhibition at 0.1 μM (dash = no inhibition)
[12] = 33P radiotracer assay, top concentration 10 μM

T1 sequence (P53667 whole entry): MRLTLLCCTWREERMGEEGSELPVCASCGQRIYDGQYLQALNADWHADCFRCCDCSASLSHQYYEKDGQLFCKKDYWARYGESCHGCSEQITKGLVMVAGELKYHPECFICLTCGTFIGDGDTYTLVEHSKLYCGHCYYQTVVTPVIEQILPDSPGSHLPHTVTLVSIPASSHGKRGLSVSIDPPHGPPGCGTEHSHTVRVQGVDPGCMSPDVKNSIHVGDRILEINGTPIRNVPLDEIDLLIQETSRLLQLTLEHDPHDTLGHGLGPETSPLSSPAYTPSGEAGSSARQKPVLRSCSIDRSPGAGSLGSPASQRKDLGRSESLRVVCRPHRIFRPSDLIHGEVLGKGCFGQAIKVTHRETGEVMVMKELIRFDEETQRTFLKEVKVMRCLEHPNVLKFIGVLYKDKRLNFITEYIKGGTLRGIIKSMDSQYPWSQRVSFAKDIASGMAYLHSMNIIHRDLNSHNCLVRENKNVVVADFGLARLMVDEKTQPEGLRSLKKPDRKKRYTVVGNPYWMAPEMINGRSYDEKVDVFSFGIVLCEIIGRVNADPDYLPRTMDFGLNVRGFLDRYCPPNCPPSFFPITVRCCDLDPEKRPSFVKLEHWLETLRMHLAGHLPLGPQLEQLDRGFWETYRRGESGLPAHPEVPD
T2 sequence (P53671 whole entry): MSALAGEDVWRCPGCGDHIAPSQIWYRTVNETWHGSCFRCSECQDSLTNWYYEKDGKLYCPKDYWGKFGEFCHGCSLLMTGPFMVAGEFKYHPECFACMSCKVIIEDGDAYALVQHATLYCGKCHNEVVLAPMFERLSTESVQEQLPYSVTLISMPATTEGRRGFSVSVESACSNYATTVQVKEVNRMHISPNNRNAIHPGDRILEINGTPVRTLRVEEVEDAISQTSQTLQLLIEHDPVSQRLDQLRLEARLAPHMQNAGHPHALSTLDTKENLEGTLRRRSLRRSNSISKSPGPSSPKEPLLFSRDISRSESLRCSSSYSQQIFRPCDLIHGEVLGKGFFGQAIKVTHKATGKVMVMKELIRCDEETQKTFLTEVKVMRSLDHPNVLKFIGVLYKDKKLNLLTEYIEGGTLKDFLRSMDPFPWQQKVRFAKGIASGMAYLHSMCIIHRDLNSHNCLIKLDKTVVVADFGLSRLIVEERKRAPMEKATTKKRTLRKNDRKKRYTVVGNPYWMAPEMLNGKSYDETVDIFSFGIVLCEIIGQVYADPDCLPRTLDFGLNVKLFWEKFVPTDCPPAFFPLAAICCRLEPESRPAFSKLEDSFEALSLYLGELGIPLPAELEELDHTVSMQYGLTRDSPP

Compound: Cc1c[nH]c2ncnc(N[C@H]3CC[C@H](NC(=NC#N)Nc4cccc(I)c4)CC3)c12 [Compound 19, 2-Cyano-1-(3-iodophenyl)-3-((1r,4r)-4-((5-methyl-7H-pyrrolo[2,3-d]pyrimidin-4-yl)amino)cyclohexyl)guanidine]
- inhibition at 0.1 µM [1, 7]: 66.6 ± 8.8%
- melting point: 129 to 130 °C

Compound: Cc1c[nH]c2ncnc(N[C@@H]3CCCC[C@H]3NC(=NC#N)Nc3cccc(Br)c3)c12 [Compound 23, 1-(3-Bromophenyl)-2-cyano-3-((1R,2R)-2-((5-methyl-7H-pyrrolo[2,3-d]pyrimidin-4-yl)amino)cyclohexyl)guanidine]
- inhibition at 0.1 µM [1, 8]: 96.7 ± 0.1%
- IC50 [2, 9]: 2650 nM
- melting point: 127 to 128 °C
- IC50 [3]: 2830 nM

Compound: Cc1c[nH]c2ncnc(NCCCCNC(=NC#N)Nc3cccc(Br)c3)c12 [Compound 15, 1-(3-Bromophenyl)-2-cyano-3-(4-((5-methyl-7H-pyrrolo[2,3-d]pyrimidin-4-yl)amino)butyl)guanidine]
- inhibition at 0.1 µM [1, 10]: 47%
- inhibition at 0.1 µM [1, 7]: 47.1 ± 1.6%
- melting point: 97 to 98 °C

Compound: Cc1c[nH]c2ncnc(N[C@H]3CCCC[C@@H]3NC(=NC#N)Nc3cccc(Br)c3)c12 [Compound 25, 1-(3-Bromophenyl)-2-cyano-3-((1S,2S)-2-((5-methyl-7H-pyrrolo[2,3-d]pyrimidin-4-yl)amino)cyclohexyl)guanidine]
- inhibition at 0.1 µM [1, 8]: 96 ± 0.5%
- inhibition of LIMK2 (in words) ([2]; 33P radiotracer assay): no significant inhibition of LIMK2
- IC50 [2, 12]: > 10000 nM
- melting point: 127 to 128 °C
- inhibition at 10 µM ([3]; 10 μM compound, 33P radiotracer assay): 47%

Compound: Cc1c[nH]c2ncnc(NCCCCNC(=NC#N)Nc3cccc(I)c3)c12 [Compound 16, 2-Cyano-1-(3-iodophenyl)-3-(4-((5-methyl-7H-pyrrolo[2,3-d]pyrimidin-4-yl)amino)butyl)guanidine]
- inhibition at 0.1 µM [1, 7]: 41 ± 2.5%
- melting point: 90 to 91 °C

Compound: Cc1c[nH]c2ncnc(NCCCNC(=NC#N)Nc3cccc(Cl)c3)c12 [Compound 11, 1-(3-Chlorophenyl)-2-cyano-3-(3-((5-methyl-7H-pyrrolo[2,3-d]pyrimidin-4-yl)amino)propyl)guanidine]
- inhibition at 0.1 µM [1, 7]: 15 ± 10.7%
- melting point: 88 to 90 °C

Compound: Cc1c[nH]c2ncnc(N[C@@H]3CCCC[C@H]3NC(=NC#N)Nc3cccc(I)c3)c12 [Compound 24, 2-Cyano-1-(3-iodophenyl)-3-((1R,2R)-2-((5-methyl-7H-pyrrolo[2,3-d]pyrimidin-4-yl)amino)cyclohexyl)guanidine]
- inhibition at 0.1 µM [1, 8]: 93.2 ± 1.2%
- IC50 [2, 9]: 3380 nM
- melting point: 128 to 129 °C
- IC50 [3]: 5080 nM

Compound: Cc1c[nH]c2ncnc(N[C@H]3CCCC[C@@H]3NC(=NC#N)Nc3cccc(I)c3)c12 [Compound 26, 2-Cyano-1-(3-iodophenyl)-3-((1S,2S)-2-((5-methyl-7H-pyrrolo[2,3-d]pyrimidin-4-yl)amino)cyclohexyl)guanidine]
- inhibition at 0.1 µM [1, 8]: 94.9 ± 0.8%
- inhibition of LIMK2 (in words) ([2]; 33P radiotracer assay): no significant inhibition of LIMK2
- IC50 [2, 12]: > 10000 nM
- melting point: 128 to 129 °C
- IC50 [3]: 8360 nM

Compound: CN(C)C(=O)Oc1cccc(NC(=O)C2(CN)CCN(c3ncnc4[nH]cc(Cl)c34)CC2)c1 [Compound 4]
- IC50 [5]: 1.6 nM
- IC50 [6]: 24 nM

Compound: Cc1c[nH]c2ncnc(N[C@H]3CC[C@H](NC(=NC#N)Nc4cccc(Cl)c4)CC3)c12 [Compound 17, 1-(3-Chlorophenyl)-2-cyano-3-((1r,4r)-4-((5-methyl-7H-pyrrolo[2,3-d]pyrimidin-4-yl)amino)cyclohexyl)guanidine]
- inhibition at 0.1 µM [1, 10]: 42%
- inhibition at 0.1 µM [1, 7]: 41.7 ± 0.1%
- melting point: 120 to 122 °C

Compound: Cc1c[nH]c2ncnc(NCCNC(=NC#N)Nc3cccc(I)c3)c12 [Compound 10, 2-Cyano-1-(3-iodophenyl)-3-(2-((5-methyl-7H-pyrrolo[2,3-d]pyrimidin-4-yl)amino)ethyl)guanidine]
- inhibition at 0.1 µM [1, 7]: 17.8 ± 7.1%
- melting point: 88 to 89 °C

Compound: Cc1c[nH]c2ncnc(NCCNC(=NC#N)Nc3cccc(Cl)c3)c12 [Compound 8, 1-(3-Chlorophenyl)-2-cyano-3-(2-((5-methyl-7H-pyrrolo[2,3-d]pyrimidin-4-yl)amino)ethyl)guanidine]
- LIMK1 inhibitory activity at 0.1 μM (in words) ([1]; ADP-Glo assay): completely abolished inhibitory activity
- inhibition at 0.1 µM [1, 11]: < 0%
- melting point: 87 to 88 °C

Further lines, with some results ahead:

- inhibition at 0.1 µM [1, 7]: 94.3 ± 0.2%
- IC50 [2, 9]: 0.86 ± 0.05 nM
- IC50 [3]: 0.28 ± 0.01 nM
Compound: Cc1c[nH]c2ncnc(N3CCN(/C(=N/C#N)Nc4cccc(Br)c4)[C@@H](C)C3)c12 [Compound 1, reference compound]
- cell migration velocity [4]: reduced the cell velocity by twofold

- LIMK1 inhibitory activity at 0.1 μM (in words) ([1]; ADP-Glo assay): abolished the inhibitory activity
- inhibition at 0.1 µM [1, 11]: < 0%
- melting point: 88 to 89 °C
Compound: Cc1c[nH]c2ncnc(NCCCNC(=NC#N)Nc3cccc(Br)c3)c12 [Compound 12, 1-(3-Bromophenyl)-2-cyano-3-(3-((5-methyl-7H-pyrrolo[2,3-d]pyrimidin-4-yl)amino)propyl)guanidine]

- LIMK1 inhibitory activity at 0.1 μM (in words) ([1]; ADP-Glo assay): completely abolished inhibitory activity
- inhibition at 0.1 µM [1, 11]: < 0%
- melting point: 90 to 91 °C
Compound: Cc1c[nH]c2ncnc(NCCCCNC(=NC#N)Nc3cccc(Cl)c3)c12 [Compound 14, 1-(3-Chlorophenyl)-2-cyano-3-(4-((5-methyl-7H-pyrrolo[2,3-d]pyrimidin-4-yl)amino)butyl)guanidine]

- inhibition at 0.1 µM [1, 7]: 17.8 ± 7.1%
- melting point: 91 to 93 °C
Compound: Cc1c[nH]c2ncnc(NCCCNC(=NC#N)Nc3cccc(I)c3)c12 [Compound 13, 2-Cyano-1-(3-iodophenyl)-3-(3-((5-methyl-7H-pyrrolo[2,3-d]pyrimidin-4-yl)amino)propyl)guanidine]

- inhibition at 0.1 µM [1, 10]: 69%
- inhibition at 0.1 µM [1, 7]: 69.2 ± 1.7%
- melting point: 127 to 128 °C
Compound: Cc1c[nH]c2ncnc(N[C@H]3CC[C@H](NC(=NC#N)Nc4cccc(Br)c4)CC3)c12 [Compound 18, 1-(3-Bromophenyl)-2-cyano-3-((1r,4r)-4-((5-methyl-7H-pyrrolo[2,3-d]pyrimidin-4-yl)amino)cyclohexyl)guanidine]

- inhibition at 0.1 µM [1, 7]: 29.4 ± 10.3%
- melting point: 86 to 88 °C
Compound: Cc1c[nH]c2ncnc(NCCNC(=NC#N)Nc3cccc(Br)c3)c12 [Compound 9, 1-(3-Bromophenyl)-2-cyano-3-(2-((5-methyl-7H-pyrrolo[2,3-d]pyrimidin-4-yl)amino)ethyl)guanidine]

- inhibition at 0.1 µM [1, 8]: 95.5 ± 0.4%
- IC50 [2, 9]: 0.47 ± 0.01 nM
- melting point: 130 to 131 °C
- IC50 [3]: 0.13 ± 0.01 nM
Compound: Cc1c[nH]c2ncnc(N3CCN(C(=NC#N)Nc4cccc(I)c4)[C@@H](C)C3)c12 [Compound 22, (S)-N′-Cyano-N-(3-iodophenyl)-2-methyl-4-(5-methyl-7H-pyrrolo[2,3-d]pyrimidin-4-yl)piperazine-1-carboximidamide]
- cell migration velocity [4]: lowered the migration even further
